Measured values as given in PMC3509626, “Antifungal Activity of (KW)n or (RW)n Peptide against Fusarium solani and Fusarium oxysporum” (International Journal of Molecular Sciences, 2012).
Read-outs that look alike come from different tables or passages of the source. Ends that are not written are not given here.

Experiments:
Type in all cases: cell-based
[1] = tested on: Fusarium solani (KCTC 6326); details: KCTC 6326, 3 h
Method: (§1) Rink amide 4-methylbenzhydrylamine resin, fluoren-9-ylmethoxycarbonyl (Fmoc) amino acids, and other reagents for peptide synthesis were purchased from Calibiochem-Novabiochem (La Jolla, CA, USA). For the quantitative antifungal assay and fungicidal activity assay, the following fungal strains were obtained from the Korea Collection for Type Cultures (KCTC): F. solani (KCTC 6326) and F. oxysporum (KCTC 6076). Fungal cells were grown on PDA (potato dextrose agar) plate and subcultured for 2–3 weeks.
(§2) The spore suspension at a concentration of 5 × 10^4 spores/mL (80 μL) was transferred to a 96-well microtiter plate along with 20 μL of (KW)n or (RW)n peptides (n = 3, 4, and 5), melittin, or media to give final peptide concentrations of 4–32 μM. Plates were incubated for 3 h before the addition of 10 μL of 3-(4,5-dimethylthiazol-2-yl)-2,5-diphenyltetrazolium bromide (MTT; 5 mg/mL; Sigma). Plates were then incubated again for 16 h at room temperature, followed by the addition of 100 μL of MTT solvent (0.1 N HCl in anhydrous isopropyl alcohol). Presence of MTT/formazan was monitored spectrophotometrically by measuring the absorbance at 570 nm and then subtracting the background absorbance at 690 nm using a Versa-Max microplate Elisa reader (Molecular Devices, Sunnyvale, CA, USA). Each measurement was conducted in triplicate.

[2] = tested on: Fusarium oxysporum (KCTC 6076); details: KCTC 6076, 3 h
Method: as §1, §2

[3] = tested on: Fusarium solani (KCTC 6326); details: for growth inhibition (conidial germination and hyphal growth): F. solani, peptide at 64 μM, 24 h, 25 °C; for concentration at which antifungal effects were exhibited (below MIC): KCTC 6326, 24 h
Method: as §1
(§3) Fungal fragments, precultured in mycelial growth medium, were placed in the center of PDA plates, after which the cultures were incubated for 96 h at 25 °C in the dark. After incubation, spores were isolated from cultures growing in half-strength PDA. Spore concentrations were then adjusted to 5 × 10^4 spores/mL in half-strength PDA, after which 80 μL was added to the wells of sterile 96-well flat-bottomed microtiter plates along with 20 μL of peptide or media to give final concentrations of 1–64 μM. Several wells were kept untreated as a control to monitor fungal growth. Plates were incubated in the dark at 25 °C for 24 h before hyphal growth was determined by measuring optical density at 595 nm using a microtiter plate Elisa reader (Molecular Devices, Sunnyvale, CA, USA). Each test was performed in triplicate. Percentages of inhibition were then calculated (Figure 1) (0% inhibition indicates growth equal to control sample (only media)). The lowest concentration of peptide inhibiting fungal growth was monitored microscopically with an inverted light microscope (IX71, Olympus, Tokyo, Japan).

[4] = tested on: Fusarium oxysporum (KCTC 6076); details: F. oxysporum, peptide at 64 μM, 24 h, 25 °C
Method: as §1, §3

Compound: N=C(N)NCCC[C@H](NC(=O)[C@H](Cc1c[nH]c2ccccc12)NC(=O)[C@H](CCCNC(=N)N)NC(=O)[C@H](Cc1c[nH]c2ccccc12)NC(=O)[C@H](CCCNC(=N)N)NC(=O)[C@H](Cc1c[nH]c2ccccc12)NC(=O)[C@H](CCCNC(=N)N)NC(=O)[C@H](Cc1c[nH]c2ccccc12)NC(=O)[C@@H](N)CCCNC(=N)N)C(=O)N[C@@H](Cc1c[nH]c2ccccc12)C(N)=O [(RW)5, RWRWRWRWRW-NH2]
- cells killed [1]: 75%
- cells killed [2]: 79%

Compound: KWKW-NH2 [(KW)2, tetrameric Lys-Trp repeat peptide amide]
- growth inhibition (conidial germination and hyphal growth) [3]: did not inhibit growth
- growth inhibition (conidial germination and hyphal growth) ([3]; listed as (KW)2-NH2): non-inhibition
- growth inhibition (conidial germination and hyphal growth) [4]: did not inhibit growth
- growth inhibition (conidial germination and hyphal growth) ([4]; listed as (KW)2-NH2): non-inhibition

Compound: KWKWKWKW-NH2 [(KW)4, KWKWKWKW-NH2]
- cells killed [1]: 68%
- cells killed [2]: 74%
- concentration at which antifungal effects were exhibited (below MIC) [3]: 4 µM

Compound: KWKWKWKWKW-NH2 [(KW)5, KWKWKWKWKW-NH2]
- cells killed [1]: 72%
- cells killed [2]: 76%

Compound: RWRW-NH2 [(RW)2, tetrameric Arg-Trp repeat peptide amide]
- growth inhibition (conidial germination and hyphal growth) [3]: did not inhibit growth
- growth inhibition (conidial germination and hyphal growth) ([3]; listed as (RW)2-NH2): non-inhibition
- growth inhibition (conidial germination and hyphal growth) [4]: did not inhibit growth
- growth inhibition (conidial germination and hyphal growth) ([4]; listed as (RW)2-NH2): non-inhibition

Compound: RWRWRWRW-NH2 [(RW)4, RWRWRWRW-NH2]
- cells killed [1]: 69%
- cells killed [2]: 76%
- concentration at which antifungal effects were exhibited (below MIC) [3]: 4 µM
